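How tested: cells in 96-well plates exposed to compound for 48 hours at five concentrations. TGI marks complete inhibition of growth.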 Where a SMILES comes first, the peptide text is derived from it. [ ]: non-standard residue; d: D form. The star is where a group is joined. X28 = COC1=CC(=O)N(C(=O)[C@@H](O*)C(C)C)[C@H]1Cc1ccccc1; NMeL = CN[C@@H](CC(C)C)C(=O)O; Hexanoyl = CCCCCC(=O)*
Tests used:
Test in all cases: DTP human tumour cell line panel, 48 h
A549 NSCLC = tested on: A549 NSCLC
CAKI-1 renal = tested on: CAKI-1 renal
DU-145 prostate = tested on: DU-145 prostate
OVCAR-3 ovarian = tested on: OVCAR-3 ovarian
OVCAR-8 ovarian = tested on: OVCAR-8 ovarian
RXF 393 renal = tested on: RXF 393 renal
SF-268 CNS = tested on: SF-268 CNS
SK-MEL-28 melanoma = tested on: SK-MEL-28 melanoma
SNB-19 CNS = tested on: SNB-19 CNS
TK-10 renal = tested on: TK-10 renal

| SMILES | TGI (A549 NSCLC) [µM] | TGI (CAKI-1 renal) [µM] | TGI (DU-145 prostate) [µM] | TGI (OVCAR-3 ovarian) [µM] | TGI (OVCAR-8 ovarian) [µM] | TGI (RXF 393 renal) [µM] | TGI (SF-268 CNS) [µM] | TGI (SK-MEL-28 melanoma) [µM] | TGI (SNB-19 CNS) [µM] | TGI (TK-10 renal) [µM] |
| --- | --- | --- | --- | --- | --- | --- | --- | --- | --- | --- |
| Cc1cc(SCC(=O)c2ccc(Br)cc2)cc(C)[o+]1 | > 100 | > 100 | 68.9 | 49.8 | > 100 | 62 | > 100 | 42.9 | > 100 | 87.9 |
| COc1ccc2c(c1)CCC(CN1CCN(CCOC(c3ccc(F)cc3)c3ccc(F)cc3)CC1)=C2 | > 100 | > 100 | 49.2 | 50.6 | 63.2 | 26.8 | > 100 | 77.1 | > 100 | 44.4 |
| CCOC(=O)c1c(OCC)[nH]c(=O)c(C(c2ccc(F)cc2)c2c(O)c(C(=O)OCC)c(OCC)[nH]c2=O)c1O | 29.3 | 42.4 | 24.3 | 39.7 | 28.1 | 23 | 33.6 | 27 | 42.2 | 67.7 |
| Cc1ccc(Nc2ncnc3sc(SCc4ccccc4)nc23)cc1 | > 100 | > 100 | > 100 | > 100 | > 100 | > 100 | > 100 | > 100 | > 100 | > 100 |
| O=C(O)CCCN1CCCCC1 | > 100 | > 100 | > 100 | > 100 | > 100 | > 100 | > 100 | > 100 | > 100 | > 100 |
| Cc1[nH]n(C(=O)c2ccccc2O)c(=O)c1/C=C1\C(=O)C=Cc2ccccc21 | 38.5 | 6.64 | 48.6 | 1.2 | 28.5 | 18.8 | 31 | 71.6 | 64.3 | > 100 |
| O=C(/C=C1\N=C(c2ccccc2)N(c2ccc3c(c2)Sc2cc(N4C(=O)/C(=C/C(=O)/C=C/c5ccccc5)N=C4c4ccccc4)ccc2N3)C1=O)/C=C/c1ccccc1 | > 100 | > 100 | > 100 | 43.6 | > 100 | > 100 | > 100 | > 100 | 80 | > 100 |
| CCOC(=O)Nc1ccc(S(=O)(=O)Nc2ccc(Br)cc2)cc1 | > 100 | > 100 | > 100 | > 100 | 68.4 | > 100 | > 100 | > 100 | > 100 | > 100 |
| COC(=O)c1nc2c(C)c(O)c(O)c([C@H](C)CCC=C(C)C)c2o1 | 57.1 | 50.9 | > 100 | > 100 | > 100 | 39.6 | > 100 | > 100 | > 100 | > 100 |
| C=C(C)C1CC2=C(C(=O)OC)C=C(O2)C(C(=C)C)[C@@H]2OC(=O)/C(=C\C1O)[C@H]2N(C)C (stereo not given in full) | 30.8 | 21.2 | 24.8 | 25.7 | 25.8 | 15.7 | 32.9 | 27.8 | 50.9 | 15.7 |
| C(=N\NC1=NCCCN1)/c1ccc(-c2cn3cc(/C=N/NC4=NCCCN4)ccc3n2)cc1 | > 100 | > 100 | > 100 | > 100 | > 89 | > 100 | > 100 | > 100 | > 100 | > 100 |
| CC(=O)C1=CC=C/C1=N\Nc1ccccc1 | 35.1 | 11.8 | 28.2 | 9.57 | 64.4 | 34.5 | 23.8 | 27 | 47.6 | 18.6 |
| NC(=O)c1cc2ccccc2c(N=Nc2ccccc2)c1O | > 100 | 69.9 | > 100 | > 100 | > 100 | > 100 | > 100 | > 100 | > 100 | > 100 |
| Cc1nc2c(=O)[nH]c(=O)nc-2n(CCO)c1C | > 100 | > 100 | > 100 | > 100 | > 100 | > 100 | > 100 | > 100 | > 100 | > 100 |
| CC(C)C[C@H](NC(=O)[C@@H](Cc1cccc2ccccc12)NC(=O)N1CCOCC1)B(O)O | 68 | 33.2 | 29.7 | 6.69 | 44.9 | 6.8 | 15.1 | 6.92 | > 100 | 25.4 |
| N=C(/C=C/c1ccc(-c2cn3cc(/C=C/C(=N)N4CCOCC4)ccc3n2)cc1)N1CCOCC1 | > 100 | > 100 | > 100 | > 100 | > 100 | > 100 | > 100 | > 100 | > 100 | > 100 |
| COc1ccccc1NC(=S)N/N=C(/c1ccccc1)c1ccccn1 | 16.3 | 10.2 | 4.95 | 16.5 | 10.5 | 13.9 | 20.4 | 23.9 | 21.8 | 18.3 |
| C[N+](C)(C)CCCCCc1c2nc(c(CCCCC[N+](C)(C)C)c3ccc([nH]3)c(CCCCC[N+](C)(C)C)c3ccc([nH]3)c(CCCCC[N+](C)(C)C)c3nc1C=C3)C=C2 | > 100 | > 100 | > 100 | > 100 | > 100 | 7.32 | > 100 | > 100 | > 100 | > 100 |

| SMILES | TGI (A549 NSCLC) [µM] | TGI (CAKI-1 renal) [µM] | TGI (DU-145 prostate) [µM] | TGI (OVCAR-3 ovarian) [µM] | TGI (OVCAR-8 ovarian) [µM] | TGI (RXF 393 renal) [µM] | TGI (SF-268 CNS) [µM] | TGI (SK-MEL-28 melanoma) [µM] | TGI (SNB-19 CNS) [µM] | TGI (TK-10 renal) [µM] |
| --- | --- | --- | --- | --- | --- | --- | --- | --- | --- | --- |
| COc1ccc(OC)c2c1C[C@@H]1C(C#N)N3[C@H](Cc4c(OC)ccc(OC)c4[C@@H]3C)C(=O)N1[C@H]2C (stereo not given in full) | > 54.3 | 30.3 | > 54.7 | 5.2 | 9.93 | 3.44 | 6.71 | 10.1 | 4.96 | 15.2 |
| CC1(c2cccc(C3CCC4(C=CC3=O)OCCO4)c2)OCCO1 (stereo not given) | 34 | 21.1 | 31.8 | 13 | 30.9 | 11.5 | 36 | 29.6 | > 45.9 | 20.3 |
| COC(=O)c1c(C)nc(C)c(N=O)c1-c1ccccc1C(F)(F)F | > 100 | 23 | > 100 | 31.3 | 35.6 | 29.7 | 30.8 | 28.4 | > 100 | 30 |
| CCCCc1cc2c(cc1O)CCC1C2CC[C@@]2(C)C1CC[C@@H]2O (stereo not given in full) | 29.3 | 52.6 | 35.3 | 29.7 | 43.4 | 22.2 | 89 | 45.1 | > 100 | 33.7 |
| S=C1c2cc(Cl)ccc2NC(=NC2CCCC2)C2CSCN12 (stereo not given) | > 100 | > 100 | > 100 | > 100 | > 100 | > 100 | > 100 | > 100 | > 100 | > 100 |
| CCOC(=O)c1cc(-c2ccc(OC)c(OC)c2)cn1C | > 10 | > 10 | > 10 | > 10 | > 10 | > 10 | > 10 | > 10 | > 10 | > 10 |
| COc1cc(O)c(C(=O)/C=C/c2ccc(O)cc2)cc1Oc1ccc(C(=O)/C=C/c2ccc(O)cc2)c(O)c1 | 15.3 | 9.69 | 5.78 | 8.14 | 7.97 | 6.1 | 14.2 | 4.11 | 25.1 | 11.3 |
| CC1CCN(c2nnc(Cl)cc2C(=O)c2ccccc2)CC1 | > 100 | 34 | > 100 | 71 | > 100 | 53.9 | 3.04 | > 100 | 92.7 | > 100 |
| COc1ccc2c(c1)CC[C@@H]1C2CC[C@]2(C)OC(=O)CCC12 (stereo not given in full) | > 100 | > 100 | > 100 | 31.4 | 28.4 | 29 | 26.6 | 34.3 | 38.2 | 97.8 |
| CCOC(=O)/C(O)=C(\C=N\C(=S)Nc1ccc(Cl)c(Cl)c1)C(=O)OCC | > 100 | > 100 | > 100 | > 100 | > 100 | > 100 | > 100 | > 100 | > 100 | > 100 |
| O=[N+]([O-])c1ccccc1S(=O)(=O)N1CCCc2cc(Cl)ccc21 | > 100 | > 100 | > 100 | > 100 | > 100 | 74.1 | > 100 | > 100 | > 100 | > 100 |
| c1ccc(COc2nc3ccc(C45CC6CC(CC(C6)C4)C5)cc3[nH]2)cc1 | > 100 | > 100 | > 100 | > 100 | > 100 | 55.8 | > 100 | > 100 | > 100 | > 72.5 |
| Cc1ccc(S(=O)(=O)OC2CN3CCC2CC3)cc1 (stereo not given) | > 100 | > 100 | > 100 | > 100 | > 100 | > 100 | > 100 | > 100 | > 100 | > 100 |
| Nc1nc(Cl)cc(NCC2(CO)CC(CCCCc3ccccc3)C2)n1 (stereo not given) | > 100 | > 100 | > 100 | > 100 | > 100 | > 100 | > 100 | > 100 | > 100 | > 100 |
| CC(=O)c1nc2ccccc2n1CC(=O)c1ccc([N+](=O)[O-])cc1 | 37.6 | 53.7 | > 100 | 35.4 | 21 | > 100 | > 100 | > 100 | 74.2 | > 100 |
| CCCCCC(=O)N[C@H](C(=O)N[C@H](C(=O)N(C)[C@@H](CC(C)C)C(=O)N1CCC[C@H]1C(=O)N1CCC[C@H]1C(=O)O[C@H](C(=O)N1C(=O)C=C(OC)[C@@H]1Cc1ccccc1)C(C)C)C(C)C)C(C)C (Hexanoyl-VV[NMeL]PP-X28) | > 100 | > 100 | > 100 | > 100 | > 100 | 90.3 | > 100 | > 100 | > 42.1 | > 100 |
| C#CCNC(Cc1ccccc1)C(=O)O (stereo not given) | > 100 | > 100 | > 100 | > 100 | > 100 | > 100 | > 100 | > 100 | > 100 | > 100 |
| C=C1C(=O)OC2C(C)C3C=CC(=O)[C@@]3(C)C(OC(=O)/C(C)=C/C)C1[C@@H]2OC(C)=O (stereo not given in full) | 3.8 | 1.61 | 3.23 | 0.744 | 0.628 | 0.61 | 3.22 | 1.76 | 4.13 | 1.57 |
